What all share (type): cell-based
One assay concerns Ovarian cancer cells HEY. Description: Influence of Fe and ALA on the proliferation inhibitory effect of adenovirus AdE3-1A1.3B (FIG. 15-17). The procedure:
Ovarian cancer cells HEY were cultured in 12-well plate at a rate of 10,000 cells/well and FeSO4 was added at a concentration of 50 μg/ml, 5 μg/ml, 0.5 μg/ml or 0 μg/ml on the following day and the cytolysis type adenovirus AdE3-1A1.3B was added to all wells. The proliferation inhibitory effect of the adenovirus was evaluated by IC50 after five days.
Next, the ovarian cancer cell line HEY was cultured in a 12-well plate at a rate of 10,000 cells/well and 5-aminolevulinic acid (ALA) was added at a concentration of 50 μg/ml, 5 μg/ml, 0.5 μg/ml or 0 μg/ml on the following day and the cytolysis type adenovirus AdE3-1A1.3B was added to all wells. The proliferation inhibitory effect of the adenovirus was evaluated by IC50 after five days.
Furthermore, the ovarian cancer cell line HEY was cultured in a 12-well plate at a rate of 10,000 cells/well and FeSO4 was added at a concentration of 50 μg/ml, 5 μg/ml, 0.5 μg/ml or 0 μg/ml on the following day. In addition, the cytolysis type adenovirus AdE3-1A1.3B and 50 μg/ml of 5-aminolevulinic acid (ALA) were added to each well. Only the adenovirus was added to a control. The proliferation inhibitory effect of the adenovirus was evaluated by IC50 after five days.

For assay [1], the system named is cancer cells. Description: β-gal assay of adenovirus infectivity. The text has this:
(§1) That is, ALA and Fe can enhance antitumor effect, because they can increase the infectivity of adenovirus to cancer cells and the amount of virus production within the cells.

For assay [2], the system named is cancer cells. Description: PFU assay of adenovirus production.
Description: as §1

Consider `NCC(=O)CCC(=O)O` [ALA, 5-aminolevulinic acid, reference compound], for which the “proliferation inhibitory effect to that of only adenovirus administration” value in the assay on Ovarian cancer cells HEY (50 μg/ml of ALA and AdE3-1A1.3B, IC50 (vp/cell) after five days) is listed as “about 100 fold”. Also, in the assay with cancer cells [1], the infectivity of adenovirus result is on record as “increased infectivity of adenovirus”. Besides, in the assay with cancer cells [2], the “amount of adenovirus production” value is listed as “increased amount of adenovirus production”.
As to `[Fe]` [Fe], the infectivity of adenovirus result in the assay with cancer cells [1] is on record as “increased infectivity of adenovirus”. For the same compound, the “amount of adenovirus production” value with cancer cells [2] is “increased amount of adenovirus production”.
Turning to ferrous sulfate [FeSO4], the “proliferation inhibitory effect to that of only adenovirus administration” value with Ovarian cancer cells HEY (0.5 μg/ml of FeSO4, 50 μg/ml of ALA and AdE3-1A1.3B, after five days) is “about 200 fold”; in the assay with Ovarian cancer cells HEY (5 μg/ml of FeSO4, 50 μg/ml of ALA and AdE3-1A1.3B, after five days), “about 700 fold”; with Ovarian cancer cells HEY (5 μg/ml of FeSO4 and AdE3-1A1.3B, IC50 (vp/cell) after five days), “about 8 fold”; in the assay with Ovarian cancer cells HEY (50 μg/ml of FeSO4, 50 μg/ml of ALA and AdE3-1A1.3B, after five days) it was “about 1,000 fold”; in the assay with Ovarian cancer cells HEY (50 μg/ml of FeSO4 and AdE3-1A1.3B, IC50 (vp/cell) after five days) it was “about 20 fold”.

Values taken from patent publication US20070134202A1, “Cancer gene therapeutic drug” (priority 2003, published 2007).
